Measurements: patent US20250186408A1, “TREATMENT OF PHARMACORESISTANT EPILEPSY” (Katholieke Universiteit Leuven, priority 2021, published 2025)
Like-named read-outs stand apart in the source and are kept apart here.

Columns and labels:
[1] = biological target: CNR1 (Homo sapiens, UniProt P21554); test: cAMP CNR1 Agonist; details: for Emax: read-out: Max response
Protocol: In vitro pharmacological profiling of compounds was done against 78 functional assays for 47 common off-targets (30) by Eurofins DiscoverX Corporation (Fremont, CA, USA) using their SAFETYscan E/IC50 ELECT service (Cat Ref 87-1003DR, Safety47 Panel Dose Response). […] Compounds were tested in a range of 10 concentrations, following a 3-fold serial dilution, starting from 10 μM. The assays were performed utilizing the PathHunter enzyme fragment complementation (EFC) technology, FLIPR®-based cellular screening assays, and KINOMEscan kinase binding assays.
cAMP Hunter cell lines were expanded from freezer stocks. Prior to testing, cells were seeded in a total volume of 20 μL into white walled 384-well microplates and incubated at 37° C. cAMP modulation was determined using the DiscoverX HitHunter cAMP XS+ assay. For Gs agonist determination, cells were incubated with sample to induce response. For Gi agonist determination, cells were incubated with sample in the presence of EC80 forskolin to induce response. For both conditions, media was aspirated from cells and replaced with 15 μL 2:1 HBSS/10 mM HEPES:cAMP XS+ Ab reagent. Intermediate dilution of sample stocks was performed to generate 4× sample in assay buffer (containing 4×EC80 forskolin in the case of antagonist determination). 5 μL of 4× sample was added to cells and incubated at 37° C. or room temperature (RT) for 30 or 60 min. Final assay vehicle concentration was 1%. For antagonist determination, cells were pre-incubated with sample followed by agonist challenge at the EC80 concentration. Media was aspirated from cells and replaced with 10 μL 1:1 HBSS/HEPES:cAMP XS+ Ab reagent. 5 μL of 4× compound was added to the cells and incubated at 37° C. or RT for 30 min. 5 μL of 4×EC80 agonist was added to the cells and incubated at 37° C. or RT for 30 or 60 min. For Gi coupled GPCRs, EC80 forskolin was included. […] Microplates were read following signal generation with a PerkinElmer Envision™ instrument for chemiluminescent signal detection. Compound activity was analyzed using CBIS data analysis suite (ChemInnovation, CA).

[2] = biological target: T1, PDE3A (Homo sapiens, UniProt Q14432); test: Enzymatic PDE3A Inhibitor; assay type: biochemical; details: for Emax: read-out: Max response; for IC50: read-out: RC50, result type IC50
T1 construct: purchased Signal Chem
Protocol: (§1) Enzyme preparations were sourced from various vendors-AChE (R&D Systems), COX1 and COX2 (BPS Bioscience), MAOA (Sigma), PDE3A and PDE4D2 (Signal Chem). AChE: enzyme and test compound were pre-incubated for 15 min at RT before substrate addition. Acetylthiocholine and DTNB were added and incubated at RT for 30 min. Signal was detected by measuring absorbance at 405 nm. COX1 and COX2: enzyme stocks were diluted in assay buffer (40 mM Tris-HCl, 1×PBS, 0.5 mM Phenol, 0.01% Tween 20 and 10 nM Hematin) and allowed to equilibrate with compounds at RT for 30 min (binding incubation). Arachidonic acid (1.7 μM) and Ampliflu Red (2.5 μM) were prepared and dispended into a reaction plate. Plates were read immediately on a fluorimeter with the emission detection at 590 nm and excitation wavelength 544 nm. MAOA: enzyme and test compound were pre-incubated for 15 min at 37° C. before substrate addition. The reaction was initiated by addition of kynuramine and incubated at 37° C. for 30 min. The reaction was terminated by addition of NaOH. The amount of 4-hydroquinoline formed was determined through spectrofluorometric readout with the emission detection at 380 nm and excitation wavelength 310 nm. PDE3A and PDE4D2: enzyme and test compound were pre-incubated for 15 min at RT before substrate addition. cAMP substrate (at a concentration equal to EC80) was added and incubated at RT for 30 min. Enzyme reaction was terminated by addition of 9 mM IBMX. Signal was detected using the HitHunter® cAMP detection kit. Microplates were transferred to a PerkinElmer Envision™ instrument and read out as described for each assay. […] For enzyme activity assays, percentage inhibition was calculated using the following equation: […]

[3] = biological target: KvLQT1/minK (Homo sapiens, UniProt P51787); test: Ion Channel KvLQT1/minK Opener; assay type: cell-based; details: for Emax: read-out: Max response
[4] = biological target: T2, INSR (Homo sapiens, UniProt P06213); test: Binding (KINOMEscan) INSR Inhibitor; details: for Emax: read-out: Max response; for IC50: read-out: RC50, result type IC50
T2 construct: purchased Eurofins DiscoverX Corporation 87-1003DR; host or cells: E. coli BL21-derived host (T7 phage) or HEK-293
Protocol: For most assays, kinase-tagged T7 phage strains were grown in parallel in 24-well blocks in an E. coli host derived from the BL21 strain. E. coli were grown to log-phase and infected with T7 phage from a frozen stock (multiplicity of infection=0.4) and incubated with shaking at 32° C. until lysis (90-150 min). The lysates were centrifuged (6,000×g) and filtered (0.2 μm) to remove cell debris. The remaining kinases were produced in HEK-293 cells and subsequently tagged with DNA for qPCR detection. Streptavidin-coated magnetic beads were treated with biotinylated small molecule ligands for 30 min at RT to generate affinity resins for kinase assays. The liganded beads were blocked with excess biotin and washed with blocking buffer (SeaBlock (Pierce), 1% BSA, 0.05% Tween 20, 1 mM DTT) to remove unbound ligand and to reduce non-specific phage binding. […] All reactions were performed in polypropylene 384-well plates in a final volume of 0.02 mL. […] The beads were then re-suspended in elution buffer (1×PBS, 0.05% Tween 20, 0.5 μM non-biotinylated affinity ligand) and incubated at RT with shaking for 30 min. The kinase concentration in the eluates was measured by qPCR.
The kinase concentration in the eluates was measured by qPCR. qPCR reactions were assembled by adding 2.5 μL of kinase eluate to 7.5 μL of qPCR master mix containing 0.15 μM amplicon primers and 0.15 μM amplicon probe. The qPCR protocol consisted of a 10 min hot start at 95° C., followed by 35 cycles of 95° C. for 15 sec, 60° C. for 1 min.
Binding constants (Kds) were calculated with a standard dose-response curve using the Hill equation: […]

[5] = biological target: T3, COX2 (Homo sapiens, UniProt P35354); test: Enzymatic COX2 Inhibitor; assay type: biochemical; details: for Emax: read-out: Max response; for IC50: read-out: RC50, result type IC50
T3 construct: purchased BPS Bioscience
T3 sequence (P35354 18-604): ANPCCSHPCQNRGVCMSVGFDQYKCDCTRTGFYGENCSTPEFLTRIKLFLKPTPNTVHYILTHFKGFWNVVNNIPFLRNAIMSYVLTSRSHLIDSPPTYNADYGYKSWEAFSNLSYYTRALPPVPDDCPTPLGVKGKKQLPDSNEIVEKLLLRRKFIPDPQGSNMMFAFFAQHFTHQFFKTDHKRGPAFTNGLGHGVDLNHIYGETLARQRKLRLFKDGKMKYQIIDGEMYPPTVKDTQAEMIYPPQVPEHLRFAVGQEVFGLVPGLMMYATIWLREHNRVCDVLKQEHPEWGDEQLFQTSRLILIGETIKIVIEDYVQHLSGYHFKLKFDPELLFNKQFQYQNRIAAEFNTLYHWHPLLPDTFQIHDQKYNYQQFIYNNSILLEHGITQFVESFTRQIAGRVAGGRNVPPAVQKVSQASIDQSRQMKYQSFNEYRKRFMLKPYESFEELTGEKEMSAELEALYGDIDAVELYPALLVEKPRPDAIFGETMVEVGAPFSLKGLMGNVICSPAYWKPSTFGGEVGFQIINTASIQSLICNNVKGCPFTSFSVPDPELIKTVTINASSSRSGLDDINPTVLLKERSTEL
Protocol: as §1

T1 sequence (Q14432 whole entry): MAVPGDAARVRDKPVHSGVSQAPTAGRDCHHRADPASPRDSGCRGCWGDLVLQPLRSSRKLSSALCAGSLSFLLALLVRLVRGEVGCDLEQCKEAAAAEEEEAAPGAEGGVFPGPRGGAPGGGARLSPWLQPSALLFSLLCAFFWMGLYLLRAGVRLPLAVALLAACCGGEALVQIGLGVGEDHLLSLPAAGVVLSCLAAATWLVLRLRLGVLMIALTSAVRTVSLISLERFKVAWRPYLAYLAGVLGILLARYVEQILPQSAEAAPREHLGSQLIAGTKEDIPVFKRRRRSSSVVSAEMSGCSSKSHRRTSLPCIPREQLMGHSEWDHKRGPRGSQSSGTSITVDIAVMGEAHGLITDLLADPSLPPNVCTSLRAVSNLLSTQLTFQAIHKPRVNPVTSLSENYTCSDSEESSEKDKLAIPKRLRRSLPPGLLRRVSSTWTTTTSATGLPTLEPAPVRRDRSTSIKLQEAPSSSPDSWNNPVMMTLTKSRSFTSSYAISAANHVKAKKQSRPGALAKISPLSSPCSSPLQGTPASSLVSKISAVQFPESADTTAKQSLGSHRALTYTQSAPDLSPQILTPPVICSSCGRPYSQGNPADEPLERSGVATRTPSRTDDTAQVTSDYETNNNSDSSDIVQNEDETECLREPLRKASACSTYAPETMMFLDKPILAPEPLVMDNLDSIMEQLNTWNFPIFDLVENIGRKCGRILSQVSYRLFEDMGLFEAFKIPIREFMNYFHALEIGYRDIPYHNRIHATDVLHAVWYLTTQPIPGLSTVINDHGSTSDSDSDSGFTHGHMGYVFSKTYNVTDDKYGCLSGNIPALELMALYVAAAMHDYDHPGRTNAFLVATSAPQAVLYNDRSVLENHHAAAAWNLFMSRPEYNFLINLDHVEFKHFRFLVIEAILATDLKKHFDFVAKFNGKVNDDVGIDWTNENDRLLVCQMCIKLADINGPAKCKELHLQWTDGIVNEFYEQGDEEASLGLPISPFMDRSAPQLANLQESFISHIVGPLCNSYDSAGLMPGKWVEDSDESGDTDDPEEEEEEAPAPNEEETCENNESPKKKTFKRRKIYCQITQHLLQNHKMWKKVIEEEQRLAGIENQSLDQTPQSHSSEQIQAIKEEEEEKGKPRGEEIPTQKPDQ
Chain of CNR1 (P21554 whole entry): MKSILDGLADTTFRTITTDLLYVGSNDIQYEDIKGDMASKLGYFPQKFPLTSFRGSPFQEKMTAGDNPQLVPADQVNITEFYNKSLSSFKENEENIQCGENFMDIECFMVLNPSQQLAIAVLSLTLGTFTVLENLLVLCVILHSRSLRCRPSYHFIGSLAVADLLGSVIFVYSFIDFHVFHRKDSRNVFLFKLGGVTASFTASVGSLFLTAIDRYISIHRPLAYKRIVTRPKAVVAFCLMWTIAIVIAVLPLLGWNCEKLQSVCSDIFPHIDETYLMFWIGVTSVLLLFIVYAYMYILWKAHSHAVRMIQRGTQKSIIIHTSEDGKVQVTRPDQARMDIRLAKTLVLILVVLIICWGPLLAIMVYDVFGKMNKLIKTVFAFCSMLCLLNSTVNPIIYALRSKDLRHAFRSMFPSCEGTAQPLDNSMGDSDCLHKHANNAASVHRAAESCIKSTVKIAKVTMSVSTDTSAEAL
T2 sequence (P06213 28-1382): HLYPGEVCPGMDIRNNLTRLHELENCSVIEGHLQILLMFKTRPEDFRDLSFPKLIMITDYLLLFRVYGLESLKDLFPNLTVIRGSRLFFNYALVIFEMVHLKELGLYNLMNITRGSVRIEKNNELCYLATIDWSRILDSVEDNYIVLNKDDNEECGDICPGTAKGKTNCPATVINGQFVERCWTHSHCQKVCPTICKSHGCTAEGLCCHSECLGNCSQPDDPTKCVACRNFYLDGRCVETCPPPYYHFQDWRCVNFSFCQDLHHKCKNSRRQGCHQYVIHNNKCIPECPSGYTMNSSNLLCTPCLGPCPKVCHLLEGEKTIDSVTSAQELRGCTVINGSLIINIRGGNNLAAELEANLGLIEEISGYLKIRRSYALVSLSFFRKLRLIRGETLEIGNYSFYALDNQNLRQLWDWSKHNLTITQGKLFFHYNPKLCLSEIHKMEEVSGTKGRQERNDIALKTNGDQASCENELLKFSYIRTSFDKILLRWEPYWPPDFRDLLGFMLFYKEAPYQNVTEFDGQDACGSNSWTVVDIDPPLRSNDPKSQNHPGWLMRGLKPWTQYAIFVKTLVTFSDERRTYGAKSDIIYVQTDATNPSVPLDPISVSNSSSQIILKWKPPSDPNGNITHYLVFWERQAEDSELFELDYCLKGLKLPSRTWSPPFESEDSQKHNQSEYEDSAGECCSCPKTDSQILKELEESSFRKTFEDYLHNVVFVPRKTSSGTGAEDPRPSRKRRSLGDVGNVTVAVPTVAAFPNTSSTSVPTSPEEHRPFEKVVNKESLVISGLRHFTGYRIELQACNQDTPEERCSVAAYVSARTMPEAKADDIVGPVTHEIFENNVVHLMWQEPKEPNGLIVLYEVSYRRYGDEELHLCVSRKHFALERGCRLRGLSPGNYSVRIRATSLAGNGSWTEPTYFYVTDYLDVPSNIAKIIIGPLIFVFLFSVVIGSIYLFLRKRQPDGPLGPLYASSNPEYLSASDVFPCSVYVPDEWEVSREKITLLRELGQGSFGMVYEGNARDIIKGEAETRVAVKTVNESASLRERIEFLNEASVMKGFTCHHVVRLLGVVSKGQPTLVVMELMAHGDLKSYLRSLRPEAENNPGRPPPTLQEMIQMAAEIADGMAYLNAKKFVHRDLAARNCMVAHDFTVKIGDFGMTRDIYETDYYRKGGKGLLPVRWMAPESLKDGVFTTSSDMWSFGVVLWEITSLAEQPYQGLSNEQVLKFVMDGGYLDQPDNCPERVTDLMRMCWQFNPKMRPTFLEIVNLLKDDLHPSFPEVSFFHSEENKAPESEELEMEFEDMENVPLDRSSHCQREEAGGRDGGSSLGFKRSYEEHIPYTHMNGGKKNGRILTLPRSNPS

Row | SMILES | EC50 [1] [µM] | Emax [1] [%] | Emax ([2]; Enzymatic PDE3A Inhibitor) [%] | IC50 ([2]; Enzymatic PDE3A Inhibitor) [µM] | Emax ([3]; Ion Channel KvLQT1/minK Opener) [%] | EC50 ([3]; Ion Channel KvLQT1/minK Opener, read-out: RC50, result type EC50) [µM] | Emax ([4]; Binding INSR Inhibitor) [%] | IC50 ([4]; Binding INSR Inhibitor) [µM] | Emax ([5]; Enzymatic COX2 Inhibitor) [%] | IC50 ([5]; Enzymatic COX2 Inhibitor) [µM] | Emax [2] [%] | EC50 [3] [µM] | Emax [3] [%] | Emax [4] [%] | Emax [5] [%]
1 | Clc1cccc(C#Cc2n[nH]c3ncccc23)c1 [Compound 10.1, 3-((3-chlorophenyl)ethynyl)-1H-pyrazolo[3,4-b]pyridine] | > 10 | 20.1 | 0.1 | > 10 | 2 | > 10 | 0 | > 10 | 0 | > 10 |  |  |  |  | 
2 | CC(C)(C)c1ccc(C#CC(O)c2ccccc2)cc1 (racemic) [Compound 3.3, rac-3-(4-(tert-butyl)phenyl)-1-phenylprop-2-yn-1-ol] | > 10 | 9.8 |  | > 10 |  |  |  | > 10 |  | > 10 | 0.6 | > 10 | 0 | 10.3 | 0
